{
  "source": "patent US11331294B2",
  "about": "“Benzoquinone derivative E3330 in combination with chemotherapeutic agents for the treatment of bladder cancer” (Indiana University Research and Technology Corporation, priority 2007, dated 2022)",
  "key": {"[1]": {"test_system": "survivin and Cyclin D1", "assay": "Western blot of survival and proliferation proteins in cells", "assay_type": "cell-based, human", "conditions": "immunoblot", "protocol": "(§1) FIGS. 36A-36H. […] In cytokine-induced T24 and UC3 cells NFκB-driven luciferase (FIG. 36A), STAT3-driven luciferase (FIG. 36B), and AP-1-driven luciferase (FIG. 36C) were quantified and normalized via Renilla following treatment with the corresponding cell growth-inhibitory IC50 concentrations. T24 cells were treated with APX2009 (8.5 μM) and APX2014 (6.5 μM), and UC3 cells were treated with APX2009 (6.1 μM) and APX2014 (4.6 μM) for 24 h. (*-p<0.05 APX treated vs vehicle, n=4). […] In the panels of FIGS. 36F & 36G, co-expression of survivin and APE1/Ref-1 was analyzed in superficial (FIG. 36F) and invasive human bladder tumors (FIG. 36G) in patients, and found nearly universal overlap of positivity in both in human samples. This was also true in cisplatin-refractory patients from the tissue microarray specimens (FIG. 36H).\nWhole cell extracts were prepared using RIPA (radioimmunoprecipitation) buffer containing protein inhibitors (1:100 PMSF, 1:100 orthovanadate and 1:100 protease inhibitor). Total protein concentration was determined via Lowry or BCA assay. 10-50 μg/well of each lysate was separated by SDS-PAGE using a 12% SDS-polyacrylamide gel. Blots were blocked with 5% nonfat dry milk in 1×TBS for 1 h and incubated overnight with primary antibodies to either APE1/Ref-1 (1:1000 dilution, Novus, NB-100-116), survivin (1:1000, Cell Signaling), Cyclin D1 (1:500, Abcam), PARP-1 (1:1000, Cell Signaling) or GAPDH (1:5000, Cell Signaling). After blots were washed three-six times with TBS-Tween, blots were incubated with HRP-conjugated secondary mouse antibodies (1:5000, Pierce). After washing three-six times with TBS-Tween, blots were visualized by enhanced chemiluminescence (West Pico/West Femto, Pierce).\nFor further confirmation of a decrease in NFκB and STAT3 transcriptional activity, levels of survivin and Cyclin D1 were examined Both survivin and Cyclin D1 are known to be downstream targets of NFκB and STAT3. […] However, unlike APE1/Ref-1, survivin expression was primarily nuclear in both urothelial confined and invasive lesions."}, "[2]": {"test_system": "SW780, T24, UC3 cell lines", "assay": "Methylene blue cell growth assay, bladder cancer cell panel", "assay_type": "cell-based, human", "protocol": "(§2) FIGS. 31A & 31B. Treatment with APE1/Ref-1 inhibitors potently blocks bladder cancer cell proliferation and activated Caspase 3/7. […] The IC50 values for FIG. 31A were determined using the methylene blue assay, n=4. […] T24 and UC3 cells were treated with APX2009 and APX2014 at the IC50 and IC90 and monitored over time for activation of capsase 3/7 by an increase in red fluorescence. Time course graphs are shown in FIG. 31B and representative images at 48 hr are shown in FIG. 32A (described more fully below), n=3-4.\nBladder cancer cell proliferation was inhibited and apoptosis was induced by potent, selective redox inhibitors of APE1/Ref-1."}, "[3]": {"test_system": "NFκB", "assay": "NFκB-driven luciferase reporter", "assay_type": "cell-based, human", "conditions": "T24 and UC3 cells induced with TNFa, IC50 concentration, 24 h", "protocol": "as §1\nThe transcriptional activity of NFκB, STAT3, and AP-1 is under redox control by APE1/Ref-1. Therefore, NFκB, STAT3, or AP-1 transcriptional activity was quantified following treatment with APE1/Ref-1 redox inhibitors (FIGS. 36A-36C)."}, "[4]": {"test_system": "T24 cells", "assay": "Methylene blue cell growth assay T24", "assay_type": "cell-based", "conditions": "Homo sapiens, T-24, read-out: cell growth-inhibitory IC50", "protocol": "as §2\nas §1, with “36H). […]” for “36H).”"}, "[5]": {"test_system": "ECFC colonies", "assay": "Limiting dilution assay (LDA)", "assay_type": "cell-based", "conditions": "25, 37.5, 50 μM", "protocol": "Limiting dilution assay. […] ECFCs were cultured as previously described (Blood, 1 Nov. 2004, Vol. 104, No. 9, pp. 2752-2760). ECFC colonies appeared between 5 and 22 days of culture. Colonies and the number of cells per colony were counted by visual inspection using an inverted microscope. […] Increasing amounts of APX3330(RN3-3) leads to a decrease in the number of colonies with large numbers of cells and an increase in colonies with only small cell numbers indicative of inhibition of cell growth. (FIG. 9). (In FIG. 9, the bars are, left to right, EtOH, and E330 dosed at 25 μM, 37.5 μM, and 50 μM.)"}, "[6]": {"test_system": "CB-ECFC cells", "assay": "Capillary tube formation assay on […]", "assay_type": "cell-based", "conditions": "about eight hours after seeding", "protocol": "Inhibition of capillary tube formation. The capillary tube formation assay was performed using CB-ECFC cells plated on […]® and treated with APX3330 or control media. ECFCs were cultured as previously described (Blood, 1 Nov. 2004, Vol. 104, No. 9, pp. 2752-2760). ECFC colonies appeared between 5 and 22 days of culture. Colonies were counted by visual inspection using an inverted microscope (Olympus, Lake Success, N.Y.) under ×40 magnification. Cells were passaged as previously described. Blood, 1 Nov. 2004, Vol. 104, No. 9, pp. 2752-2760.)\nThe tube formation assay was performed as described previously (J. Biol. Chem. 274 (1999), pp. […]). Various concentrations of APX3330 were given to CB-ECFCs for about 30 min at room temperature before seeding and plated onto the layer of […]® at a density of about 1×10^4 cells/well. After about eight hours, the enclosed networks of complete tubes from randomly chosen fields were counted and photographed under a microscope."}, "[7]": {"test_system": "HL-60 cells", "assay": "HL-60 differentiation and apoptosis with retinoic acid", "assay_type": "cell-based", "protocol": "APX3330 in combination with Retinoic Acid. […] HL-60 cells were treated with either vehicle (EtOH; control), APX3330, retinoic acid (RA) or APX3330 and RA at the concentrations indicated and morphology determined on day six. Morphological analysis indicated an increase in the differentiation of the HL-60 cells treated with APX3330 (RN3-3)."}},
  "data": [
    {"smiles": "CCC/C(=C\\C1=C(OC)C(=O)c2ccccc2C1=O)C(=O)N(CC)CC", "note": "[APX2009, [(2E)-2-[(3-methoxy-1,4-dioxo-1,4-dihydronaphthalen-2-yl)methylidene]-N,N-diethylpentanamide]]", "values": [
      {"measurement": "expression of c-Myc, Bcl-2, Bcl-XL", "setting": "[1]", "value": "No change in expression"},
      {"measurement": "expression of survivin and Cyclin D1", "setting": "[1]", "value": "significantly down-regulated"},
      {"measurement": "fold lower IC50 than APX3330", "setting": "[2]", "value": 7, "unit": "fold"},
      {"measurement": "reduction of NFκB-driven luciferase activity", "setting": "[3]", "value": 2, "unit": "fold"},
      {"measurement": "IC50", "setting": "[4]", "value": 8.5, "unit": "µM"}
    ]},
    {"smiles": "CCCCCCCCC/C(=C\\C1=C(C)C(=O)C(OC)=C(OC)C1=O)C(=O)O", "note": "[APX3330]", "values": [
      {"measurement": "growth of large cell number colonies", "setting": "[5]", "value": "inhibit growth of large cell number colonies"},
      {"measurement": "tube formation", "setting": "[6]", "value": "inhibit tube formation"},
      {"measurement": "increase in cells undergoing apoptosis, APX3330 and RA compared with RA alone", "setting": "[7]; 25 μM APX3330, day 6", "value": "~1.5"},
      {"measurement": "reduction of RA required for same level of differentiation (CD11)", "setting": "[7]; addition of APX3330 to RA", "value": "about 1000 fold"},
      {"measurement": "cell differentiation in combination with retinoic acid", "setting": "[7]; day six, morphology", "value": "enhanced the effects of retinoic acid on promoting cell differentiation"},
      {"measurement": "HL-60 cells undergoing apoptosis (annexin/PI) at lower doses of RA", "setting": "[7]; lower doses of RA", "value": "did not significantly enhance the level of HL-60 cells undergoing apoptosis"}
    ]}
  ]
}
